For data set [1], the system named is C2C12. The data set can be described thus: Cytotoxicity against mouse C2C12 cells assessed as cell viability up to 100 uM after 24 hrs by CellTox green assay. The data set is classed as cell-based. The note with it: c2c12, 24 h.
Data set [2] relates to C2C12. Kind of data set: Upregulation of mitochondrial function in mouse C2C12 cells assessed as increase in mitochondrial oxygen consumption rate at 10 uM after 1 hr relative to control. The data set is classed as functional, cell-based.
Data set [3] has as its system C2C12. Kind of data set: Upregulation of mitochondrial function in mouse C2C12 cells assessed as increase in mitochondrial ATP level at 10 uM after 1 hr by ToxGlo assay relative to control. It counts as functional, cell-based.

Activity calls are given as the source filed them. The rule behind the calls is not given here.

Take `O=C([O-])c1ccc[n+]([C@H]2O[C@H](COC(=O)c3ccc(O)cc3)[C@@H](O)[C@H]2O)c1`: the Activity entry with C2C12 [1] is listed as “Non-toxic”. For the same compound, the result in the data set with C2C12 [2] and in the data set on C2C12 [3] was Active.
